Experimental data taken from patent publication US12503448B2, “Antibacterial and antiparasitic quinoxaline-2,3-diamine derivatives” (University College Cardiff Consultants Limited, priority 2019, dated 2025).
≈ marks a conversion by molar mass, not a printed value. Like-named read-outs stand apart in the source and are kept apart here.

Experiments:
S. mansoni schistosomula = experiment: 72 hours schistosomula drug screen; assay type: cell-based, Schistosoma mansoni; settings: for Selectivity Index Schistosomula: HepG2 CC50 over schistosomula EC50; for EC50: Schistosoma mansoni
Experimental: Biological Screening 72 Hours Schistosomula Drug Screen […] G. Colley, […], Schistosoma mansoni: simplified method for the production of schistosomules., Exp. Parasitol. 35 (1974) 44-51. Newly transformed schistosomula were prepared for 72 hour high throughput screening (HTS) in 384-well black-sided microtiter plates (Perkin Elmer, MA, USA) as described in M. Nur-e-alam, M. Yousaf, […]. Bari, H. A. Ghabbour, […]. Ho, A. J. […], Neoclerodane Diterpenoids from […], Teucrium […]. Nat. […] The data obtained in this manner is shown in Table 1 in the columns labelled “Phenotype”, “Motility” and “Schistosomula average”.

MTT assay on HepG2 cells = assay type: cell-based; settings: human
Experimental: MTT Assay on HepG2 Cells Human Hepatocyte Carcinoma (HepG2) cells (85011430, Sigma Aldrich) were used to assess the overt toxicity of these anti-infective compounds. […] A negative control (1% v/v Triton X-100; X100, Sigma-Aldrich) was also included in each screen. After addition of compounds, each plate was then incubated for a further 20 hrs before application of MTT reagent (prepared as described in Nur-[…], Bari A, Ghabbour […], Hoffmann […] Nat Prod. 2017 Jun. 23; 80(6):1900-1908 for the assessment of compound cytotoxicity using the MTT assay. […] The plate was then further incubated for 4 hrs. After incubation, each plate was blotted dry under the laminar flow to remove the MTT treated culture media. A 100 μl DMSO: isopropanol (1:1) solution was then added to each well and the plate was then subsequently incubated for 10 minutes at 37° C. Following incubation, each plate was shaken again and then absorbance measured at 570 nm. The absorbance reading was corrected based on the average value of the wells used as blank (no cells). […] The data obtained in this manner is shown in Table 1 in the columns labelled “HepG2”. […] The selectivity indexes for schistosomula and adult worms are shown in the final two columns in Table 1.

MRSA EM RSA = experiment: In vitro antibacterial activity; assay type: cell-based; settings: Staphylococcus aureus
Description: (§1) In vitro Determination of Antibacterial Activity
(§2) Scientific Reports 8 (1), 2018. Bacterial strains of Enterococcus faecalis—ATCC 29212, NCTC 12201, ATCC 51299; Streptococcus pneumoniae—ATCC 49619, 18778, 21394, 21395; Haemophilus influenza—ATCC 49766, 18391, 17428; Staphylococcus aureus—NCTC 12493, ATCC BAA-077, ATCC 700698, 11051; used for testing the compounds, as previously described in “Clinical laboratory testing and in vitro diagnostics test systems—Susceptibility testing of infectious agents and evaluation of performance of antimicrobial susceptibility devices—Part 1: Reference methods for testing the in vitro activity of antimicrobial agentes against bacteria involved in infectious diseases, ISO/FDIS 20776-1:2006(E). All the procedures were carried out in a biosafety containment level 2.

[1] = test system: Haemophilus influenzae ATCC 49766; experiment: Antibacterial MIC (ISO 20776-1); assay type: cell-based; settings: ATCC49766
Description: as §1, §2

[2] = test system: Streptococcus pneumoniae ATCC 49619; experiment: Antibacterial MIC (ISO 20776-1); assay type: cell-based; settings: Streptococcus pneumoniae, ATCC49619
Description: as §1, §2

[3] = test system: Enterococcus faecalis NCTC 12201; experiment: Antibacterial MIC (ISO 20776-1); assay type: cell-based; settings: NCTC12201; Enterococcus faecalis NCTC 12201, Vancomycin resistance, vanA
Description: as §1, §2

[4] = test system: Staphylococcus aureus ATCC BAA-977; experiment: Antibacterial MIC (ISO 20776-1); assay type: cell-based; settings: Staphylococcus aureus, ATCCBAA977
Description: as §1, §2

[5] = test system: Haemophilus influenzae 17428; experiment: Antibacterial MIC (ISO 20776-1); assay type: cell-based; settings: Haemophilus influenzae 17428, Ampicillin resistance, PBP
Description: as §1, §2

[6] = test system: Haemophilus influenzae 18391; experiment: Antibacterial MIC (ISO 20776-1); assay type: cell-based; settings: Haemophilus influenzae 18391, AMP/COA resistance, PBP/β-lactamase
Description: as §1, §2

[7] = test system: Staphylococcus aureus NCTC 12493; experiment: Antibacterial MIC (ISO 20776-1); assay type: cell-based; settings: Staphylococcus aureus, NCTC12493
Description: as §1, §2

[8] = test system: Staphylococcus aureus ATCC 700698; experiment: Antibacterial MIC (ISO 20776-1); assay type: cell-based; settings: ATCC700698; Staphylococcus aureus ATCC 700698, Vancomycin resistance, hVISA; read-out: MIC
Description: as §1, §2

[9] = test system: Streptococcus pneumoniae 21394; experiment: Antibacterial MIC (ISO 20776-1); assay type: cell-based; settings: Streptococcus pneumoniae, 21394
Description: as §1, §2

[10] = test system: Streptococcus pneumoniae 18778; experiment: Antibacterial MIC (ISO 20776-1); assay type: cell-based; settings: Streptococcus pneumoniae, 18778
Description: as §1, §2

[11] = test system: Enterococcus faecalis ATCC 51299; experiment: Antibacterial MIC (ISO 20776-1); assay type: cell-based; settings: ATCC51299; Enterococcus faecalis ATCC 51299, Vancomycin resistance, vanB
Description: as §1, §2

[12] = test system: Enterococcus faecalis ATCC 29212; experiment: Antibacterial MIC (ISO 20776-1); assay type: cell-based; settings: Enterococcus faecalis, ATCC29212
Description: as §1, §2

[13] = test system: Staphylococcus aureus 11051; experiment: Antibacterial MIC (ISO 20776-1); assay type: cell-based; settings: Staphylococcus aureus, 11051
Description: as §1, §2

[14] = test system: Streptococcus pneumoniae 21395; experiment: Antibacterial MIC (ISO 20776-1); assay type: cell-based; settings: Streptococcus pneumoniae, 21395
Description: as §1, §2

S. aureus ATCC 29213 = experiment: In vitro antibacterial activity; assay type: cell-based; settings: Staphylococcus aureus, ATCC29213
E. coli ATCC 25922 = experiment: In vitro antibacterial activity; assay type: cell-based; settings: Escherichia coli, ATCC25922
MRSA USA 300 = experiment: In vitro antibacterial activity; assay type: cell-based; settings: Staphylococcus aureus
[15] = test system: M. smegmatis mc^2 15 ATCC 700084; experiment: In vitro antibacterial activity; assay type: cell-based, Mycobacterium smegmatis; settings: Mycolicibacterium smegmatis, ATCC700084
MRSA ATCC 33591 = experiment: In vitro antibacterial activity; assay type: cell-based; settings: Staphylococcus aureus
B. cereus = experiment: In vitro antibacterial activity; assay type: cell-based; settings: Bacillus cereus; B. cereus; read-out: MIC90
S. epidermidis NTCT11077 = experiment: In vitro antibacterial activity; assay type: cell-based; settings: Staphylococcus epidermidis, NTCT11077
[16] = test system: Pseudomonas aeruginosa ATCC 27853; experiment: In vitro antibacterial activity; assay type: cell-based; settings: Pseudomonas aeruginosa, ATCC27853
[17] = test system: F. hepatica newly excysted juveniles (NEJs); experiment: Newly excysted juveniles (NEJs) drug screen; assay type: cell-based, Fasciola hepatica; design: scale not given here; settings: 10 μM, 72 h; higher score indicates lower worm activity
Experimental: Newly Excysted Juveniles (NEJs) Drug Screen
F. hepatica (Italian strain) metacercariae were obtained from Ridgeway Research, Gloucestershire, UK and stored at 4° C. Newly excysted juveniles (NEJs) from metacercariae were produced based on an optimisation introduced to the excystment method published by Dixon et al. and Wilson et al (Dixon, K. E., The physiology of excystment of the metacercaria of Fasciola hepática L. Parasitology, 1966, 56, 431-456.; Wilson, L. R., Good, R. T., Panaccio, M., Wijffels, G. L., Sandeman, R. M., Spithill, T. W, Fasciola hepatica: Characterization and Cloning of the Major Cathepsin B Protease Secreted by Newly Excysted Juvenile Liver Fluke. Experimental Parasitology 1998, 88, 85-94).
After excystment, NEJs were distributed into a 24 well tissue culture plate at a density of 25 parasites per well containing 1 mL of pre-warmed NEJs culture media. Compounds were added to respective wells and NEJ/compound co-cultures were incubated at 37° C. in an atmosphere containing 5% CO2 for 72 hours at a final concentration of 10 μM.
F. hepatica NEJs (25 per well) were incubated with the three compounds at a concentration of 10 μM (in 0.1% DMSO) and cultured for 72 hrs at 37° C. in an atmosphere containing 5% CO2. Control wells (25 NEJs per well) included those containing 0.1% DMSO (solvent) and RMPI (media) as negative controls or 10 μM Triclabendazole (0.1% DMSO, as positive control, labelled “Tbz” (Comp. 3). After 72 hrs, all NEJs were scored for phenotype and motility metrics. For each treatment, an average of both phenotype and motility score was calculated based on the individual parasite scores (across two independent replicates), wherein a higher score indicates lower worm activity. SD is reported on the bar chart.

[18] = schistosomula, 72 hour culture, read-out: EC50 Motility
[19] = schistosomula, 72 hour culture, read-out: EC50 Phenotype
[20] = average of phenotype and motility, read-out: EC50 Schistosomula average

With `Cc1cccc(Nc2nc3ccc([N+](=O)[O-])cc3nc2Nc2cccc(C)c2)c1` [Compound 21] the “Selectivity Index Schistosomula” value (S. mansoni schistosomula) was 11, the EC50 (S. mansoni schistosomula; [18]) was 1.23 µM and the EC50 (S. mansoni schistosomula; [19]) was 1.62 µM. For the same compound, the CC50 at 24 h (MTT assay on HepG2 cells) was 15.6 µM.

In the case of `c1ccc(/N=c2\sc3ccccc3s\c2=N/c2ccccc2)cc1` [Compound 20], the “Selectivity Index Schistosomula” value (S. mansoni schistosomula) is reported as 3, the EC50 (S. mansoni schistosomula; [20]) is reported as 4.41 µM and the EC50 (S. mansoni schistosomula; [18]) is reported as 4.51 µM. It also gave an EC50 (S. mansoni schistosomula; [19]) of 4.31 µM and a CC50 at 24 h (MTT assay on HepG2 cells) of 13.8 µM.

For `O=C(Nc1ccc2nc(Nc3ccc(Cl)c(Cl)c3)c(Nc3ccc(Cl)c(Cl)c3)nc2c1)c1ccco1` [Compound 19, N-(2,3-bis((3,4-dichlorophenyl)amino)quinoxalin-6-yl)furan-2-carboxamide], the MIC90 (MRSA EM RSA) was 62.5 µg/mL (≈ 112 µM), the MIC [1] was 64 µg/mL (≈ 114 µM) and the MIC [2] was 8 µg/mL (≈ 14.3 µM). It also gave an MIC [3] of 0.25 µg/mL (≈ 0.447 µM), an MIC [4] of 8 µg/mL (≈ 14.3 µM) and an MIC [5] of 64 µg/mL (≈ 114 µM). For the same compound, the MIC [6] was 64 µg/mL (≈ 114 µM), the MIC [7] was 1 µg/mL (≈ 1.79 µM) and the MIC [8] was 8 µg/mL (≈ 14.3 µM). The MIC [9] was 8 µg/mL (≈ 14.3 µM), the MIC [10] was 8 µg/mL (≈ 14.3 µM) and the MIC [11] was 2 µg/mL (≈ 3.58 µM). The MIC [12] was 4 µg/mL (≈ 7.15 µM), the MIC [13] was 8 µg/mL (≈ 14.3 µM) and the MIC [14] was 8 µg/mL (≈ 14.3 µM). For the same compound, the MIC90 (S. aureus ATCC 29213) was 31.2 µg/mL (≈ 55.9 µM), the MIC90 (E. coli ATCC 25922) was over 125 µg/mL and the “Selectivity Index Schistosomula” value (S. mansoni schistosomula) was 8. For the same compound, the EC50 (S. mansoni schistosomula; [20]) was 1.94 µM, the EC50 (S. mansoni schistosomula; [18]) was 1.33 µM and the EC50 (S. mansoni schistosomula; [19]) was 2.54 µM. For the same compound, the MIC90 (MRSA USA 300) was 62.5 µg/mL (≈ 112 µM), the MIC90 [15] was over 125 µg/mL and the MIC90 (MRSA ATCC 33591) was 15.6 µg/mL (≈ 27.9 µM). For the same compound, the MIC90 (B. cereus) was under 62.5 µg/mL, the MIC90 (S. epidermidis NTCT11077) was 125 µg/mL (≈ 224 µM) and the MIC90 [16] was over 125 µg/mL. For the same compound, the “Motility (M) Mean score” value [17] was 3.36 and the “Phenotype (P) Mean score” value [17] was 3.40.
